Read-outs that look alike come from different tables or passages of the source. Blank lines part the entries; values can stand above or below the compound they belong to.
What was measured:
Assay type in all cases: in vivo, rat
[1] = test system: rats with unilateral caudate nucleus (striatum) lesion
Text: One of the major behavioral methods to measure the increase in dopamine activity in the brain is rotational behavior. Dopamine is the neurotransmitter in the striatum. The striatum controls motor movements and motor integration. In the brain there are two striata, in the right and left hemispheres, respectively. Unilateral ablation of a striatum will result in walking in circles, as the intact striatum is still functioning; Ungerstadt, U. et al., Brain Res., 1970, 24: 485-492, created a lesion in one striatum and measured the effect on rotational behavior. Since then, this technique has been used to screen molecules, such as stimulants or potential anti-Parkinson drugs, which induce increase in dopaminergic activity.
Groups of 6 male Sprague-Dawley rats (Charles River Laboratories, Wilmington, Mass.) weighing 100-120 g, were housed 6 per cage in a well-ventilated and air-conditioned room of ambient temperature (22±2° C.) and relative humidity 45%. The rats had access to food (Big Red Laboratory Chow, Agway Inc., Syracuse, N.Y.) and water ad libitum. Light (“Vita Light”, Duro Test Corp., North Bergen, N.J.) was provided between 9 am and 9 pm.
All surgery was performed under anesthesia (sodium pentobarbital, 50 mg/ml, as required). The rats were placed in a Kopf stereotaxic instrument (model #900). Unilateral anodal electrolytic lesions were made with constant current supply (lesion-producing device #58040, Stoelting, Chicago, Ill.). Current (2.0 mV for 10 seconds) was passed through stainless steel insulated wire pe 32, 0.008 inches diameter (“Formax”, Stoelting, Chicago, Ill.), bared only at the tip. […]
Rotational behavior was tested in a rotameter, modified from the design of Ungerstedt et al., 1970. […] The potentiometer (preamplifier 8805 A) measured and recorded the changes in the amount of current which passed through it, resulting from the rotational movements of the rats. […]
Each rat was placed in the rotameter and treated with an i.p. injection of saline or (I) (10 mg/kg) as prepared above. […] The frequency of turning was measured between 30-40 minutes post-injection. […]

[2] = test system: rats with unilateral caudate nucleus (striatum) lesion; assay: Rotational behavior in rats with unilateral striatum lesion, testing of (II)
Experimental: Three groups of 12 male Sprague-Dawley rats (Charles River Laboratories, Wilmington, Mass.) weighing 100-150 g, were housed 6 per cage in a well-ventilated and air-conditioned room of ambient temperature (22±2° C.) and relative humidity 45%. The rats had access to food (Big Red Laboratory Chow, Agway Inc., Syracuse, N.Y.) and water ad libitum. Light (“Vita Light”, Duro Test Corp., North Bergen, N.J.) was provided between 9 am and 9 pm. These groups were used for rotational study, the dosage of (II) being 100 mg/kg, i.p.
One group served as a control group (no treatment), a second group was a sham operated group, and a third group was the operated group. All surgery was performed under anesthesia (sodium pentobarbital, 50 mg/ml, as required). The rats were placed in a Kopf stereotaxic instrument (model #900). Unilateral anodal electrolytic lesions were made with constant current supply (lesion-producing device #58040, Stoelting, Chicago, Ill.). Current (2.0 mV for 10 seconds) was passed through stainless steel insulated wire pc 32, 0.008 inches diameter (“Formax”, Stoelting, Chicago, Ill.), bared only at the tip. The coordinates (modified from Konig and Klippel, 1963) for caudate nucleus lesion were: A 8.5, L 2.2, V+1.8. The lesions were made in the left side of the brain. Sham operated animals were treated as lesioned animals, i.e. they were placed in the stereotaxic instrument and an electrode was placed in the brain, but without passing electric current therethrough. After surgery, each rat was placed in an individual cage. Tests were made at day 10 after surgery. At the end of the experiment, each rat was given an overdose of pentobarbital and perfused with saline, followed by 10% formalin. Brains were removed and serial coronal slices were made at 40 micra, using a freezing microtome. Representative slides were stained with Cresyl Violet for verification of the lesion.
Details of the procedure with regard to determination of rotational behavior were substantially as described above for testing (I).

[3] = test system: rats challenged with Ro4-1284; assay: Ro4-1284-induced blephrospasm model
Text: This is an involuntary spasm of the orbicular muscles of the eye, causing forceful closure of the eyes. Symptomatically there is a significant increase in the rate of eyelid closures/min. This phenomenon is regarded as a type of dystonia, a decrease in the brain dopamine level being the etiology of this syndrome. Ro4-1284 is a powerful dopamine-depleting agent. In saline-treated animals, Ro4-1284 is able to induce an animal model of benign essential blephrospasm. Groups of rats similar to those described above were treated daily for 14 days with 25 mg/kg (II), i.p., and then were challenged with a dose of 40 mg/kg Ro4-1284, i.p. The results of this test were shown in the following Table.

[4] = lesioned rats, 100 mg/kg i.p., day 10 after surgery

crossing of the blood-brain barrier ([1]; rat, in vivo): cross the blood-brain barrier | abnormal behavior (stereotype) ([1]; rat, in vivo, ip, 10 mg/kg): not found
SMILES: CC/C=C\C/C=C\C/C=C\CCCCCCCC(=O)N[C@@H](Cc1ccc(O)cc1)C(=O)O [(I), N-(α-linolenoyl)tyrosine]
rate of rotational motion ([1]; lesioned rats, 10 mg/kg i.p., 30-40 minutes post-injection, day 4 after surgery, increased from 4 cycles/minute): 40 cycles/minute

crossing of the blood-brain barrier ([2]; conclusion drawn from the behavioral testing): cross the blood-brain barrier
SMILES: CC/C=C\C/C=C\C/C=C\CCCCCCCC(=O)N[C@@H](Cc1ccc(O)cc1)C(=O)OC [(II), N-β-linolenyltyrosine Methyl Ester]
% L [2, 4]: 98% | % R [2, 4]: 2% | L (turns to the left) [2, 4]: 98 | L + R [2, 4]: 100 | R (turns to the right) [2, 4]: 2 | rate of eyelid blinking/min. ([3]; 25 mg/kg (II) i.p. daily for 14 days, then Ro4-1284 40 mg/kg i.p., 30 minutes after Ro4-1284, p < 0.001): 5.00 ± 1.95 min⁻¹

SMILES: CCC1(O)CC2c3cc(OC)c(OC)cc3CCN2CC1CC(C)C (centres unmarked) [Ro4-1284, reference compound]
rate of eyelid blinking/min. ([3]; Ro4-1284 40 mg/kg i.p. alone, 30 minutes after treatment with Ro4-1284): 19.08 ± 3.4 min⁻¹
